Assay results from patent US20110077212A1, “THERAPEUTIC USES OF SGLT2 INHIBITORS” (Theracos, Inc., priority 2009, published 2011).
“And” between values parts separate entries of the source, which are not always exact repeats. Equal entries are not always repeated. Structures can show the parent of a compound that is named as a salt.

Assays:
[1] = tested on: SD Rats Fed a Pioglitazone (0.03%) Containing Diet; assay: Plasma volume (hematocrit) of SD rats fed a pioglitazone-containing diet for 7 days; format: in vivo, Sprague-Dawley rats; conditions: for Plasma expansion versus vehicle treated rats (in words): 7 days pioglitazone diet, compound in drinking water; for Plasma Volume % DAY 1: day 1 (first day of pioglitazone 0.03% diet and compound in drinking water), amiloride 1.5 mg/kg; for Plasma Volume % DAY 1 / Plasma Volume % DELTA / Plasma Volume % DAY 7: TEST COMPOUND 4.5 mg/kg, mean ± SEM; for Plasma Volume % DELTA: day 7 minus day 1, pioglitazone 0.03% diet; for Plasma Volume % DELTA / Plasma Volume % DAY 7: amiloride 1.5 mg/kg in drinking water; for Plasma Volume % DAY 7: day 7 of pioglitazone 0.03% diet
Excerpt: (§1) […] On day −5 rats and water bottles were weighed and placed in the cage with ad lib access to standard rodent chow. Body weights were used to assign rats to counter-balanced groups. Daily water consumption was estimated after weighing bottles again on day −1 and used to determine the appropriate drug concentrations to achieve the desired daily doses. On day 1, rats were weighed and then received an ad mixed diet (ad lib) containing 0.03% pioglitazone in place of standard chow. Food weight was recorded in order to track consumption over the course of the experiment. At this time, rats were also given drinking water containing compound at the appropriate concentration. Full bottles were pre-weighed and recorded in order to track consumption over the course of the experiment. On day 1 and day 7, rats were warmed using a heating pad and lightly anesthetized using isoflurane (Butler Animal Health Services; Chicago, Ill.). Using a sterile scalpel blade, a small tail nick was made on the distal one third of the tail. Blood was collected in a heparinized microcapillary tube (FisherBrand; Pittsburg, Pa.), sealed with putty at one end and stored on ice until centrifugation (5000 rpm, 5 min). Plasma volume was determined using a Critocaps microhematocrit capillary tube reader card (Leica: Lot #7426). On day 7, rats, food and water bottles were again weighed and recorded, hematocrits were determined using blood collected by a tail nick. All data are presented as means +/−1 SEM. Statistical analyses were performed using GraphPad Prism statistical software. The mean differences among the treatment groups for all variables were tested for statistical significance using 2-way repeated measures ANOVAs. Additionally, differences were calculated for each animal (day 7−day 1), and resultant means were tested for statistical significance using 1-way ANOVAs.

[2] = tested on: SD Rats Fed a Pioglitazone (0.03%) Containing Diet; assay: Body weight of SD rats fed a pioglitazone-containing diet for 7 days; format: in vivo, Sprague-Dawley rats; conditions: for Body Weight (g) DAY 1: day 1 (first day of pioglitazone 0.03% diet and compound in drinking water), amiloride 1.5 mg/kg; for Body Weight (g) DAY 1 / Body Weight (%) DELTA (percent weight gain) / Body Weight (g) DELTA (weight gain) / Body Weight (g) DAY 7 / Body Weight (%) DAY 7: TEST COMPOUND 4.5 mg/kg; for Body Weight (g) DAY 1 / Body Weight (%) DELTA (percent weight gain) / Body Weight (g) DELTA (weight gain) / Body Weight (g) DAY 7 / Body Weight (%) DAY 1 / Body Weight (%) DAY 7: mean ± SEM; for Body Weight (%) DELTA (percent weight gain): day 7 minus day 1, percent of day 1 value; for Body Weight (%) DELTA (percent weight gain) / Body Weight (g) DELTA (weight gain) / Body Weight (%) DAY 1 / Body Weight (%) DAY 7: pioglitazone 0.03% diet; for Body Weight (%) DELTA (percent weight gain) / Body Weight (g) DELTA (weight gain) / Body Weight (g) DAY 7 / Body Weight (%) DAY 7: amiloride 1.5 mg/kg in drinking water; for Body Weight (g) DELTA (weight gain): day 7 minus day 1; for Body Weight (g) DAY 7: day 7 of pioglitazone 0.03% diet; for Body Weight (%) DAY 1 / Body Weight (%) DAY 7: percent of day 1 value
Excerpt: as §1, with “day” for “day 1 and day 7, rats were warmed using a heating pad and lightly anesthetized using isoflurane (Butler Animal Health Services; Chicago, Ill.). Using a sterile scalpel blade, a small tail nick was made on the distal one third of the tail. Blood was collected in a heparinized microcapillary tube (FisherBrand; Pittsburg, Pa.), sealed with putty at one end and stored on ice until centrifugation (5000 rpm, 5 min). Plasma volume was determined using a Critocaps microhematocrit capillary tube reader card (Leica: Lot #7426). On day”

[3] = one week, pioglitazone 20-25 mg/kg/day in diet

Compound	Plasma expansion versus vehicle treated rats (in words) [1]	Plasma Volume % DAY 1 [1] [%]	Plasma Volume % DELTA [1] [%]	Plasma Volume % DAY 7 [1] [%]	Body Weight (g) DAY 1 [2]	Body Weight (%) DELTA (percent weight gain) [2]	Body Weight (g) DELTA (weight gain) [2]	Body Weight (g) DAY 7 [2]	Body Weight (%) DAY 1 [2]	Body Weight (%) DAY 7 [2]	Plasma expansion induced by pioglitazone (in words) [1, 3]	Increase in body weight induced by pioglitazone [2, 3]
N=C(N)NC(=O)c1nc(Cl)c(N)nc1N [Amiloride, Amiloride HCl Hydrate]	significance for the observed trend toward reversal of PPAR-γ induced expansion was not achieved	52.7 ± 0.9	3.9 ± 0.7	56.6 ± 0.4	370.0 ± 6.0 g	10.8 ± 0.7%	40.0 ± 2.8 g	410.0 ± 7.7 g	100 ± 0%	110.8 ± 0.7 %		
OC[C@H]1O[C@@H](c2ccc(Cl)c(Cc3ccc(OCCOC4CC4)cc3)c2)[C@H](O)[C@@H](O)[C@@H]1O [TEST COMPOUND, (2S,3R,4R,5S,6R)-2-(4-chloro-3-(4-(2-cyclopropoxyethoxy)benzyl)phenyl)-6-(hydroxymethyl)tetrahydro-2H-pyran-3,4,5-triol]	significantly less plasma expansion than vehicle treated rats	52.9 ± 0.5	1.8 ± 0.8	54.7 ± 0.6	371.7 ± 5.0 ^ g	4.8% and 4.8 ± 1.3 %	17.4 g and 17.5 ± 4.7 g	389.2 ± 5.7 ^†† g	100 ± 0 ^ %	104.8 ± 1.3 ^†† %		
CCc1ccc(CCOc2ccc(CC3SC(=O)NC3=O)cc2)nc1 (stereo not shown) [pioglitazone]											significant plasma expansion	approximately 45 g
